Read-outs that look alike come from different tables or passages of the source.
How the values were obtained:
SH-SY5Y cells = assay: Neuroprotection in cellular L-BMAA model (MTT cell viability); format: cell-based; conditions: L-BMAA 10 mM, inhibitors 10 μM, 24 h
Experimental: SH-SY5Y cells on a 96 well plate ere incubated with L-BMAA (10 mM) with or without inhibitors (10 μM). A control experiment was set at the same time without L-BMAA or inhibitors. After 24 h a MTT was performed to determine cell viability using known procedures in the literature. Experiment was performed in triplicate.
Mechanistically and structurally diverse GSK-3 inhibitors were tested in a cellular model of L-BMAA to study whether GSK-3 inhibition was implicated in neuroprotection at L-BMAA damage, using a forward chemical genetic approach. […] Cells were incubated with L-BMAA together with or without inhibitors for 24 h and cell viability was determined.

Human recombinant GSK-3β [1] = target: T1, Human recombinant GSK-3β (Homo sapiens, UniProt P49841); conditions: cited from earlier work
T1 construct: purchased Millipore (Millipore Iberica S.A.U.)
T1 sequence (P49841 whole entry): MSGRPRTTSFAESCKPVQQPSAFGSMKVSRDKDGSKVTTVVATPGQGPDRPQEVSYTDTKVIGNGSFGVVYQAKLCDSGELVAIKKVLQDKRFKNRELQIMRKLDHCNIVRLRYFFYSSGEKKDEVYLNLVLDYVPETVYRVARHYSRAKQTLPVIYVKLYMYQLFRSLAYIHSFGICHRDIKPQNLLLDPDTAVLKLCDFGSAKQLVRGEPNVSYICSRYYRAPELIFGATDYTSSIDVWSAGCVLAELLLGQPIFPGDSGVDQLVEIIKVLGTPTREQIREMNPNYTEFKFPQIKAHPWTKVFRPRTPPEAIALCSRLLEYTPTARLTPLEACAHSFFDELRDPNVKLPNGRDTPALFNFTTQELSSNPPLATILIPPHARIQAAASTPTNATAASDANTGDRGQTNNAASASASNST

[2] = Weight progression of treated rats; format: in vivo, Rattus norvegicus; conditions: alone or co-administered, VP2.51 2.5 mg/Kg i.p. 15 days, L-BMAA 300 mg/kg i.p. 5 days, 100 days
From the text: After this time the animals were sacrificed.

LC3-II and P-mTOR = assay: Analysis of LC3-II and P-mTOR by western-blot (autophagy) in motor cortex and lumbar spinal cord; format: in vivo, Rattus norvegicus
Experimental: The entire brain and the lumbar spinal cord were rapidly removed and stored at -80°C.
To analyse LC3-II and P-mTOR by western-blot, 100 mg of motor cortex and lumbar spinal cord of each animal were homogenized in a RIPA buffer: 50 mM Tris–HCl pH 7.4, 50 mM NaCl, Nonidet P-40 1%, 1 mM EDTA, 1 mM PMSF, 1 mg/mL aprotinin, […] leupeptin, 1 mg/mL pepstatin, at a rate of […] of tissue. The mixture was sonicated for 2 min with 2 s pulses of sonication and 2 s off at amplitude of 40%. Once the samples were homogenized, the evaluation and protein electrophoresis was performed. The protocol was adapted from Zhang et al as described in Muñoz-Sáez et al.
Before the electrophoresis, the protein concentrations of all samples were determined by Bradford assay (Sigma–Aldrich Inc., St. Louis, MO, USA; Bradford, 1976).
Electrophoresis for protein separation was performed by SDS-PAGE. In all cases, the concentrating gel contained 6% polyacrylamide. Regarding LC3-II, the percentage of polyacrylamide was 12% for the separating gel and for P-mTOR an 8% polyacrylamide separating gel was used. Subsequently, proteins from the gels were transferred to a nitrocellulose membrane (AmershamTM HybondTM–ECL) in a wet system at 10 V o/n and 4°C. Membranes were incubated with following primary antibodies: a rabbit polyclonal anti-tubulin β-III (Novus Biologicals, Littleton, CO, USA), a rabbit polyclonal anti-LC3-II (Novus Biologicals, Littleton, CO, USA) and rabbit polyclonal anti-mTOR (Phospho-Ser2448) (Novus Biologicals, Littleton, CO, USA). As a secondary antibody, we applied Donkey anti-rabbit IgG-Fc Horseradish Peroxidase (HRP) (Bethyl Laboratories, Montgomery, TX, USA). All the antibodies were used according to the manufacturers’ specifications. Proteins were detected by enhanced chemiluminescence. Digital images were acquired using a Fujifilm Intelligent Darkbox II (Fuji Systems USA, Stamford, CT) and the image processing for quantification was conducted with free image processing software Image J.

male rats, Wistar strain = assay: Neurological evaluation in L-BMAA motor neuron disease model
Experimental: Assays were carried out using male rats of Rattus norvegicus, albino variety, Wistar strain, that were supplied by Harlan Interfauna Ibérica S.A. (Barcelona, Spain). Animals were kept at constant temperature (21 ± 1°C) on a reversed light/dark cycle with diets and water ad libitum (A04 commercial rodent diet, Panlab, Barcelona, Spain). […] Animal’s health was monitored by weight control. […] Animals were sacrificed at the established time point under general anaesthesia with isoflurane (ISOFLO®, Abbott Laboratories, Abbott Park, IL, USA).
At weaning time (postnatal day 21) animals, with a weight between 45 and 55 g, were intraperitoneally (i.p.) injected with 300 mg/kg of L-BMAA (L-BMAA hydrochloride, Sigma-Aldrich, Ref. B107), during 5 consecutive days. The injected solution was composed by 50 mg of L-BMAA dissolved in 500 μl of PBS (0.1 mg / μl).
VP2.51 was dissolved in a stock solution of DMSO (dimethyl sulfoxide, Sigma) at 100 mg/mL. This stock was used to prepare a final solution of 1 mg/mL in PBS with 5% DMSO and 5% Tween® 80 (Sigma). Rats were injected i.p. 2.5 mg/Kg beginning at two different times: on the first day after treatment with L-BMAA (PT1) and on day post-treatment 30 (PT30). Injection treatment was performed for 15 consecutive days.
In summary, 6 different groups of 12 animals each were used: Control (only PBS injected), L-BMAA, L-BMAA+VP2.51 PT1, VP2.51 PT1, L-BMAA+VP2.51 PT30, VP2.51 PT30. Weight monitoring was performed every day during 100 days. After this time the animals were sacrificed.
The neurological tests were carried out blindly as described by de Munck et al [13], once a week during 100 days. Briefly, the neurological assess was carried out with three different tests: ambulation, tail suspension test and strength test. […] In the tail suspension test, the rat was suspended by the tail at 10 cm over the surface. The ability to keep the hind limbs in the normal neutral position adopted by rodents in such situation, i.e., describing a “T” was evaluated, together with the stiffness of the limbs and the inter-limb coordination during kicking. The strength test and was carried out setting down the rats on a flat surface, both forelegs and hind limbs on it, while pulling the tail softly to the opposite direction of animal usual move course. The ability the rats had to drag and offer resistance, assessing their faculty to kept hind limbs under the body without spreading their legs away from it was observed. The neurological evaluation was established in a scale comprised between 0 and 10, where 0 is the evaluation given to animals which are not symptomatic, control animals, and 10 belongs to a state of total functional loss of the hindlimbs and postural control.

[3] = In vitro parallel artificial membrane permeability assay (PAMPA-BBB); format: in vitro ADME, porcine; conditions: for Pe: PBS:DMSO (95:5), 4 h at 25°C, mean ± SD of 3 independent experiments
Experimental: Prediction of the brain penetration was evaluated using a parallel artificial membrane permeability assay (PAMPA). Ten commercial drugs, phosphate buffer saline solution at pH 7.4 (PBS), DMSO and dodecane were purchased from Sigma, Across organics, Aldrich and Fluka. […] Filter PDVF membrane units (diameter 30 mm, pore size 0.45 μm) from Symta were used to filter the samples. A 96-well plate UV reader (Thermoscientific, Multiskan spectrum) was used for the UV measurements. Test compounds were dissolved in DMSO (250 μL). 25 μL of this compound stock solution was taken and 225 μL of DMSO and 4750 μL of PBS pH 7.4 buffer were added to reach 5% of DMSO concentration in the experiment. These solutions were filtered. The acceptor 96-well microplate was filled with 180 μL of PBS:DMSO (95:5). The donor 96-well plate was coated with 4 μL of porcine brain lipid in dodecane (20 mg mL^-1) and after 5 minutes, 180 μL of each compound solution was added. […] Then the donor plate was carefully put on the acceptor plate to form a “sandwich”, which was left undisturbed for 4 h at 25°C. During this time the compounds diffused from the donor plate through the brain lipid membrane into the acceptor plate. After incubation, the donor plate was removed. The concentration of VP2.51 and commercial drugs in the acceptor and the donor wells was determined by UV plate reader. Every sample was analyzed at three to five wavelengths, in 3 wells and in three independent runs. […] Validation was made comparing the reported permeabilities values of commercial drugs with the experimental data obtained employing this methodology.
Finally, the ability to cross the blood-brain barrier (BBB) was determined. […] VP2.51 permeability through the BBB was evaluated by a parallel artificial membrane permeability assay (PAMPA) using porcine brain membrane lipid and ten commercial drugs following the methodology described by Di et al.

Human recombinant GSK-3β [4] = target: T1, Human recombinant GSK-3β; assay: Inhibition of GSK-3 (Kinase-Glo luminescent assay; ADP-Glo for kinetics); format: biochemical
Experimental: Human recombinant GSK-3β was purchased from Millipore (Millipore Iberica S.A.U.). The prephosphorylated polypeptide substrate was purchased from Millipore (Millipore Iberica S.A.U.). Kinase-Glo Luminescent Kinase Assay was obtained from Promega (Promega Biotech Ibérica, SL). ATP and all other reagents were from Sigma-Aldrich (St. Louis, MO). Assay buffer contained 50 mM HEPES (pH 7.5), 1 mM EDTA, 1 mM EGTA, and 15 mM magnesium acetate.
The method of Baki et al was followed to analyse the inhibition of GSK-3β. Kinase-Glo assays were performed in assay buffer using black 96-well plates. […] After 30 min incubation at 30°C the enzymatic reaction was stopped with 40 μl of Kinase-Glo reagent. Glo-type luminescence was recorded after 10 min using a FLUOstar Optima (BMG Labtechnologies GmbH, Offenburg, Germany) multimode reader. The activity is proportional to the difference of the total and consumed ATP. The inhibitory activities were calculated on the basis of maximal activities measured in the absence of inhibitor. […] To investigate the inhibitory mechanism of VP2.51 on GSK-3β, a kinetic study varying both ATP (from 1 to 50 μM) and VP.251 (from 0.5 to 1 μM) concentrations were performed using the ADP-Glo Kinase Assay.
To study the type of enzymatic inhibition for the compounds, measurements after several times of incubation of the enzyme with the inhibitor VP2.51 were performed.

casein kinase-1δ (CK-1δ) = casein kinase-1δ (CK-1δ) (Homo sapiens, UniProt P48730); assay: CK-1δ inhibition following a described protocol; format: biochemical
casein kinase-1δ (CK-1δ), sequence (P48730 whole entry): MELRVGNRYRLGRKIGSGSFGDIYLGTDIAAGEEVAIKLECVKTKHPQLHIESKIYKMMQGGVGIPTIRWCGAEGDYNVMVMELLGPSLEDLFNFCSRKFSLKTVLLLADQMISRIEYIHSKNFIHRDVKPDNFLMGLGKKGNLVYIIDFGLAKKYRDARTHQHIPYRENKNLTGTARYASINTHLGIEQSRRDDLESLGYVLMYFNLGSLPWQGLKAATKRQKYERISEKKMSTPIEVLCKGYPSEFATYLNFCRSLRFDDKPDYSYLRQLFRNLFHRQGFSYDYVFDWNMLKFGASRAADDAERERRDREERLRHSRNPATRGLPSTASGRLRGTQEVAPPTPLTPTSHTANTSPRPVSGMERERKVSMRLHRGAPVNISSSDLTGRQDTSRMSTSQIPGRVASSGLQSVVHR

[5] = system: panel of fifty different human kinases; conditions: fixed concentration 10 μM
Experimental: Fig 1 Biological activity of VP2.51 on GSK-3 and other protein kinases. […] B) Kinetic GSK-3 inhibition data determined for VP2.51. ATP concentrations in the reaction mixture varied from 1 to 50 μM. […] Each point is the mean of two different experiments, each one analyzed in duplicate. C) Kinase profiling of VP2.51 on human recombinant kinases. The percentage (%) of kinase activity after the treatment with a fixed concentration (10 μM) of the compound is shown.

cytochromes P450 family = system: cytochromes P450 family; design: method as in earlier work; conditions: cited from earlier work
multiple sclerosis model = system: multiple sclerosis model; design: method as in PMID 23606540; conditions: cited from earlier work

For CC(=O)C1=C(c2cn(C)c3ccccc23)C(=O)NC1=O [INH-38], the “Cell viability, protection from L-BMAA damage” value (“Cell viability, protection” below) (SH-SY5Y cells) is listed as “protect cells from L-BMAA damage” and the “Kind of GSK-3 inhibition” value (Human recombinant GSK-3β [1]) is listed as “ATP-competitive inhibitors”.

For c1ccc(-c2n/c(=N/CCN3CCOCC3)sn2-c2ccccc2)cc1 [ITDZ 55], the “Cell viability, protection” value (SH-SY5Y cells) is given as “protect cells from L-BMAA damage” and the “Kind of GSK-3 inhibition” value (Human recombinant GSK-3β [1]) is given as “substrate competitive inhibitor”.

In the case of CNC[C@H](N)C(=O)O [L-BMAA, β-N-methylamino-L-alanine, reference compound], the “Effect on weight progression / physical development” value [2] is reported as “do not affect physical development”, the “P-mTOR levels in lumbar spinal cord vs control animals” value (LC3-II and P-mTOR; L-BMAA treated rats, t = 3.257, p = 0.031) is reported as “significantly higher” and the “P-mTOR levels in motor cortex vs control animals” value (LC3-II and P-mTOR; L-BMAA treated rats, t = 5.889, p = 0.0042) is reported as “significantly higher”. The “LC3-II levels in motor cortex vs control animals” value (LC3-II and P-mTOR; L-BMAA treated rats, t = 5.969, p = 0.027) was “significantly higher”, the “LC3-II levels in lumbar spinal cord vs control animals” value (LC3-II and P-mTOR; L-BMAA treated rats, t = 46.85, p = 0.0005) was “significantly higher” and the “neurological evaluation score (scale 0-10)” value (male rats, Wistar strain; rats treated with L-BMAA only, 300 mg/kg i.p. 5 consecutive days) was 7 points.

In the case of CN1C(C(=O)Nc2ccccn2)=C(O)c2ccccc2S1(=O)=O [Piroxicam, reference compound], the Pe ([3]; PAMPA-BBB) is reported as 1.7 ± 0.3 10^-6 cm s^-1.

With CN(C)CCCN1c2ccccc2Sc2ccccc21 [Promazine, reference compound] the Pe ([3]; PAMPA-BBB) was 8.9 ± 1.0 10^-6 cm s^-1.

For CCCCCCCCCCCC(=O)NNC(=O)c1c(O)c2ccccc2n(CC)c1=O [VP0.7], the “Cell viability, protection” value (SH-SY5Y cells) is given as “protect cells from L-BMAA damage” and the “Kind of GSK-3 inhibition” value (Human recombinant GSK-3β [1]; does not compete with ATP nor substrate) is given as “allosteric inhibitor”.

With COc1ccc(CNC(=O)Nc2nc(C)c(C(C)=O)s2)cc1 [VP2.51, 1-(5-Acetyl-4-methyl-1,3-thiazol-2-yl)-3-(4-methoxybenzyl)urea] the “Inhibitory mechanism (kinetic experiments)” value (Human recombinant GSK-3β [4]; ATP 1 to 50 μM, GS-2 12.5 μM, ADP-Glo) was “competes in vitro with ATP”, the “Type of enzymatic inhibition (time dependent experiments)” value (Human recombinant GSK-3β [4]; VP2.51 at 1 and 2 μM, several times of incubation with enzyme) was “reversible inhibition” and the IC50 (Human recombinant GSK-3β [4]; human recombinant enzyme, 1 μM ATP, 30 min, 30°C, read-out: GSK-3 inhibitory activity in vitro IC50) was 0.62 ± 0.15 µM. The IC50 (casein kinase-1δ (CK-1δ)) was 7.28 ± 0.87 µM, the “CK-1δ IC50 relative to GSK-3 IC50” value (casein kinase-1δ (CK-1δ); fold over GSK-3 inhibition) was “tenfold” and the Kinase selectivity profile [5] was “targeting only both isoforms of GSK-3, α and β, and with less potency, casein kinase-1δ (CK-1δ)”. For the same compound, the BBB prediction ([3]; PAMPA-BBB) was “CNS + (CNS + when they present a permeability > 4.15 x 10^−6 cm s^-1)”, the Pe ([3]; PAMPA-BBB) was 7.6 ± 0.4 10^-6 cm s^-1 and the Papp at 4 h ([3]; pig, pH 7.4, PAMPA, porcine brain membrane lipid, read-out: effective permeability) was 7.6 ± 0.4 ×10⁻⁶ cm/s. The “Cell viability, protection” value (SH-SY5Y cells) was “protect cells from L-BMAA damage”, the “Effect on weight progression / physical development” value [2] was “do not affect physical development” and the “P-mTOR level in lumbar spinal cord vs L-BMAA treated animals” value (LC3-II and P-mTOR; L-BMAA+VP2.51 at PT1) was “lower non-significant”. The “LC3-II levels in motor cortex vs L-BMAA treated animals” value (LC3-II and P-mTOR; L-BMAA+VP2.51 at PT1, t = 3.547, p <0.05) was “significantly lower”, the “LC3-II levels in lumbar spinal cord vs L-BMAA treated animals” value (LC3-II and P-mTOR; L-BMAA+VP2.51 at PT1, t = 5.083, p <0.01) was “lower” and the “P-mTOR levels in motor cortex vs L-BMAA treated animals” value (LC3-II and P-mTOR; L-BMAA+VP2.51 at PT1, t = 7.223, p <0.001) was “significantly lower”. For the same compound, the “Inhibition of cytochromes P450 family” value (cytochromes P450 family) was “weak or partial inhibitor”, the “Efficacy in multiple sclerosis model” value (multiple sclerosis model) was “effective” and the “Evolution of neurological evaluation vs L-BMAA only group” value (male rats, Wistar strain; L-BMAA + VP2.51 PT1 (2.5 mg/Kg i.p. 15 days from day 1 after L-BMAA), F = 89.34, p <0.0001) was “markedly improved”. The “Evolution of neurological evaluation vs L-BMAA only group” value (male rats, Wistar strain; L-BMAA + VP2.51 PT30 (2.5 mg/Kg i.p. 15 days from day 30 post-treatment)) was “did not show significant differences”, the “neurological evaluation score (scale 0-10)” value (male rats, Wistar strain; rats treated exclusively with VP2.51 (PT1 and PT30), 2.5 mg/Kg i.p. 15 days) was “zero” and the “Neurological pathologies or observable toxicities” value (male rats, Wistar strain; rats, VP2.51 2.5 mg/Kg i.p. 15 days) was “does not promote either neurological pathologies or observable toxicities”.
